{"source": "patent US20040097543A1", "about": "“Use of cyclic 2,4-diphosphoclycerates (cdgp) and/or derivatives thereof in cosmetic and dermatological formulations” (priority 2000, published 2004)", "key": {"[1]": {"experiment": "Stability properties (chemical, physical, pH, light)", "format": "physicochemical"}, "[2]": {"tested_on": "enzymes", "experiment": "Protection against thermally induced denaturation of enzymes", "format": "biochemical", "conditions": "in comparison with a number of other compatible solutes far and decidedly better"}, "[3]": {"experiment": "Solubility in water", "format": "physicochemical"}, "[4]": {"tested_on": "LDH", "experiment": "Stabilization when freezing protein solutions (LDH)", "format": "biochemical"}, "[5]": {"experiment": "Half-life (hydrolysis)", "format": "physicochemical", "conditions": "T = 120° C."}}, "data": [{"smiles": "O=C(O)[C@H]1COP(=O)(O)OP(=O)(O)O1", "note": "[Cyclic diphosphoglycerate, cyclic diphosphoglycerate]", "values": [{"measurement": "chemical and physical stability", "setting": "[1]", "value": "High"}, {"measurement": "protective effect in respect of the thermally induced denaturation of enzymes", "setting": "[2]", "value": "excellent"}, {"measurement": "solubility in water", "setting": "[3]", "value": "Excellent"}, {"measurement": "stabilizing properties when freezing protein solutions (LDH)", "setting": "[4]", "value": "good stabilizing properties"}, {"measurement": "half-life", "setting": "[5]", "value": 150, "unit": "h"}]}]}
